Measured values reported in patent US20230295118A1 (EnhancedBio Inc., priority 2022, published 2023).

Key:
Type in all cases: cell-based
[1] = tested on: mantle cell lymphoma cell (Mino or JeKo-1); assay: Antiproliferative effect, MTS cell viability assay; conditions: 72 h, mantle cell lymphoma cell (Mino or JeKo-1), MTS assay, read-out: IC50 (anti-proliferation)
Summary of the method: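 MTS read-out (formazan absorbance at 490 nm) after 72 h exposure of Mino cells to 0–1 μM compound (0.0001, 0.001, 0.01, 0.1, 1 μM). Palbociclib and abemaciclib served as positive controls.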

CDK4 = target: T1, CDK4 (Homo sapiens, UniProt P11802); assay: CDK4 degradation (DC50, Dmax)
T1 construct: endogenous in cells
T1 sequence (P11802 whole entry): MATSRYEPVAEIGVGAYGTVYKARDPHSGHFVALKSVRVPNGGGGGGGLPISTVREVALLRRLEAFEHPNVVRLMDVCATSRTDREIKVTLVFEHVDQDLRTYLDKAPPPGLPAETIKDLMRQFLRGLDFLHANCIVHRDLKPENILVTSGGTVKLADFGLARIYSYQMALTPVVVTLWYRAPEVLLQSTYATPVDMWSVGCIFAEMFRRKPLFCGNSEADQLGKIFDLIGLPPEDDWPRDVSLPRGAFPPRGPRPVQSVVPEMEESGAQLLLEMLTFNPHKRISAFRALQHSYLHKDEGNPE

CDK6 = target: T2, CDK6 (Homo sapiens, UniProt Q00534); assay: CDK6 degradation (DC50, Dmax)
T2 construct: endogenous in cells
T2 sequence (Q00534 whole entry): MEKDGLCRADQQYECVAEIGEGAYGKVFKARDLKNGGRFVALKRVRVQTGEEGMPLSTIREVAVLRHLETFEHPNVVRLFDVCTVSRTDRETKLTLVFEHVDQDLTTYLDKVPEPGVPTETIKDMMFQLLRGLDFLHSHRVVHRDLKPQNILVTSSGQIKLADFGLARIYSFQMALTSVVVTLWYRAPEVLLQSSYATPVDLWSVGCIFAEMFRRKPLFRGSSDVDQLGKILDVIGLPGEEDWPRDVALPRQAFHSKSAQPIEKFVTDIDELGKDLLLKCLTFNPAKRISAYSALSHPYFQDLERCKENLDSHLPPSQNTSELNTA

SMILES	IC50 [1] [nM]	DC50 (CDK4) [nM]	Dmax (CDK4) [%]	DC50 (CDK6) [nM]	Dmax (CDK6) [%]
CC(=O)c1c(C)c2cnc(Nc3ccc(N4CCN(C(=O)C5CN(c6ccc7c(c6)CN(C6CCC(=O)NC6=O)C7=O)C5)CC4)cn3)nc2n(C2CCCC2)c1=O (stereo not shown) [Compound 122, 3-(5-(3-(4-(6-((6-acetyl-8-cyclopentyl-5-methyl-7-oxo-7,8-dihydropyrido[2,3-d]pyrimidin-2-yl)amino)pyridin-3-yl)piperazine-1-carbonyl)azetidin-1-yl)-1-oxoisoindolin-2-yl) piperidine-2,6-dione]	< 50	< 50	> 80	< 50	> 80
CC(=O)c1c(C)c2cnc(Nc3ccc(N4CCN(C(=O)C5CN(c6ccc(C(=O)NC7CCC(=O)NC7=O)cc6)C5)CC4)cn3)nc2n(C2CCCC2)c1=O (stereo not shown) [Compound 123, 4-(3-(4-(6-((6-acetyl-8-cyclopentyl-5-methyl-7-oxo-7,8-dihydropyrido[2,3-d]pyrimidin-2-yl)amino)pyridin-3-yl)piperazine-1-carbonyl)azetidin-1-yl)-N-(2,6-dioxopiperidin-3-yl)benzamide]	< 50	< 50	> 60	< 50	> 60
CC(=O)c1c(C)c2cnc(Nc3ccc(N4CCN(C(=O)C5CN(c6ccc(NC7CCC(=O)NC7=O)cc6)C5)CC4)cn3)nc2n(C2CCCC2)c1=O (stereo not shown) [Compound 124, 3-((4-(3-(4-(6-((6-acetyl-8-cyclopentyl-5-methyl-7-oxo-7,8-dihydropyrido[2,3-d]pyrimidin-2-yl)amino)pyridin-3-yl)piperazine-1-carbonyl)azetidin-1-yl)phenyl)amino) piperidine-2,6-dione]	< 50	50 to 200	> 80	50 to 200	> 60
CC(=O)c1c(C)c2cnc(Nc3ccc(C4CCN(CC5CN(c6ccc7c(c6)C(=O)N(C6CCC(=O)NC6=O)C7=O)C5)CC4)cn3)nc2n(C2CCCC2)c1=O (stereo not shown) [Compound 125, 5-(3-((4-(6-((6-acetyl-8-cyclopentyl-5-methyl-7-oxo-7,8-dihydropyrido[2,3-d]pyrimidin-2-yl)amino)pyridin-3-yl)piperidin-1-yl)methyl)azetidin-1-yl)-2-(2,6-dioxopiperidin-3-yl)isoindoline-1,3-dione]	< 50	< 50	> 80	< 50	> 80
CC(=O)c1c(C)c2cnc(Nc3ccc(C4CCN(CC5CN(c6ccc7c(c6)CN(C6CCC(=O)NC6=O)C7=O)C5)CC4)cn3)nc2n(C2CCCC2)c1=O (stereo not shown) [Compound 126, 3-(5-(3-((4-(6-((6-acetyl-8-cyclopentyl-5-methyl-7-oxo-7,8-dihydropyrido[2,3-d]pyrimidin-2-yl)amino)pyridin-3-yl)piperidin-1-yl)methyl)azetidin-1-yl)-1-oxoisoindolin-2-yl) piperidine-2,6-dione]	< 50	< 50	> 80	< 50	> 80
CC(=O)c1c(C)c2cnc(Nc3ccc(C4CCN(CC5CN(c6ccc(C(=O)NC7CCC(=O)NC7=O)cc6)C5)CC4)cn3)nc2n(C2CCCC2)c1=O (stereo not shown) [Compound 127, 4-(3-((4-(6-((6-acetyl-8-cyclopentyl-5-methyl-7-oxo-7,8-dihydropyrido[2,3-d]pyrimidin-2-yl)amino)pyridin-3-yl)piperidin-1-y)methyl)azetidin-1-yl)-N-(2,6-dioxopiperidin-3-yl)benzamide]	< 50	50 to 200	> 80	50 to 200	> 80
CC(=O)c1c(C)c2cnc(Nc3ccc(C4CCN(CC5CN(c6ccc(NC7CCC(=O)NC7=O)cc6)C5)CC4)cn3)nc2n(C2CCCC2)c1=O (stereo not shown) [Compound 128, 3-((4-(3-((4-(6-((6-acetyl-8-cyclopentyl-5-methyl-7-oxo-7,8-dihydropyrido[2,3-d]pyrimidin-2-yl)amino)pyridin-3-yl)piperidin-1-yl)methyl)azetidin-1-yl)phenyl)amino) piperidine-2,6-dione]	< 50	< 50	> 80	< 50	> 80
CC(=O)c1c(C)c2cnc(Nc3ccc(C4CCN(C(=O)C5CN(c6ccc7c(c6)C(=O)N(C6CCC(=O)NC6=O)C7=O)C5)CC4)cn3)nc2n(C2CCCC2)c1=O (stereo not shown) [Compound 129, 5-(3-(4-(6-((6-acetyl-8-cyclopentyl-5-methyl-7-oxo-7,8-dihydropyrido[2,3-d]pyrimidin-2-yl)amino)pyridin-3-yl)piperidine-1-carbonyl)azetidin-1-yl)-2-(2,6-dioxopiperidin-3-yl)isoindoline-1,3-dione]	50 to 200	50 to 200	> 80	50 to 200	> 80
CC(=O)c1c(C)c2cnc(Nc3ccc(C4CCN(C(=O)C5CN(c6ccc7c(c6)CN(C6CCC(=O)NC6=O)C7=O)C5)CC4)cn3)nc2n(C2CCCC2)c1=O (stereo not shown) [Compound 130, 3-(5-(3-(4-(6-((6-acetyl-8-cyclopentyl-5-methyl-7-oxo-7,8-dihydropyrido[2,3-d]pyrimidin-2-yl)amino)pyridin-3-yl)piperidine-1-carbonyl)azetidin-1-yl)-1-oxoisoindolin-2-yl)piperidine-2,6-dione]	< 50	50 to 200	> 80	< 50	> 60
CC(=O)c1c(C)c2cnc(Nc3ccc(C4CCN(C(=O)C5CN(c6ccc(C(=O)NC7CCC(=O)NC7=O)cc6)C5)CC4)cn3)nc2n(C2CCCC2)c1=O (stereo not shown) [Compound 131, 4-(3-(4-(6-((6-acetyl-8-cyclopentyl-5-methyl-7-oxo-7,8-dihydropyrido[2,3-d]pyrimidin-2-yl)amino)pyridin-3-yl)piperidine-1-carbonyl)azetidin-1-yl)-N-(2,6-dioxopiperidin-3-yl)benzamide]	50 to 200	50 to 200	> 60	50 to 200	> 60
CC(=O)c1c(C)c2cnc(Nc3ccc(C4CCN(C(=O)C5CN(c6ccc(NC7CCC(=O)NC7=O)cc6)C5)CC4)cn3)nc2n(C2CCCC2)c1=O (stereo not shown) [Compound 132, 3-((4-(3-(4-(6-((6-acetyl-8-cyclopentyl-5-methyl-7-oxo-7,8-dibydropyrido[2,3-d]pyrimidin-2-yl)amino)pyridin-3-yl)piperidine-1-carbonyl)azetidin-1-yl)phenyl)amino) piperidine-2,6-dione]	< 50	50 to 200	> 80	< 50	> 80
Cc1nc2c(F)cc(-c3nc(Nc4ccc(CN5CCN(CC6CN(c7ccc(C(=O)NC8CCC(=O)NC8=O)cc7)C6)CC5)cn4)ncc3F)cc2n1C(C)C (stereo not shown) [Compound 133, N-(2,6-dioxopiperidin-3-yl)-4-(3-((4-((6-((5-fluoro-4-4-fluoro-1-isopropyl-2-methyl-1H-benzo[d]imidazol-6-yl)pyrimidin-2-ylamino)pyridin-3-yl)methyl)piperazin-1-yl)methyl)azetidin-1-yl)benzamide]	< 50	< 50	> 80	< 50	> 80
Cc1nc2c(F)cc(-c3nc(Nc4ccc(CN5CCN(CC6CN(c7ccc(NC8CCC(=O)NC8=O)cc7)C6)CC5)cn4)ncc3F)cc2n1C(C)C (stereo not shown) [Compound 134]	< 50	< 50	> 80	< 50	> 80
Cc1nc2c(F)cc(-c3nc(Nc4ccc(CN5CCN(C(=O)C6CN(c7ccc8c(c7)C(=O)N(C7CCC(=O)NC7=O)C8=O)C6)CC5)cn4)ncc3F)cc2n1C(C)C (stereo not shown) [Compound 135, 2-(2,6-dioxopiperidin-3-yl)-5-(3-(4-((6-((5-fluoro-4-(4-fluoro-1-isopropyl-2-methyl-1H-benzo[d]imidazol-6-yl)pyrimidin-2-yl)amino)pyridin-3-yl)methyl)piperazine-1-carbonyl)azetidin-1-yl)isoindoline-1,3-dione]	< 50	< 50	> 80	50 to 200	> 60
Cc1nc2c(F)cc(-c3nc(Nc4ccc(CN5CCN(C(=O)C6CN(c7ccc8c(c7)CN(C7CCC(=O)NC7=O)C8=O)C6)CC5)cn4)ncc3F)cc2n1C(C)C (stereo not shown) [Compound 136, 3-(5-(3-(4-((6-((5-fluoro-4-(4-fluoro-1-isopropyl-2-methyl-1H-benzo[d]imidazol-6-yl)pyrimidin-2-yl)amino)pyridin-3-yl)methyl)piperazine-1-carbonyl)azetidin-1-yl)-1-oxoisoindolin-2-yl) piperidine-2,6-dione]	< 50	50 to 200	> 80	50 to 200	> 80
Cc1nc2c(F)cc(-c3nc(Nc4ccc(CN5CCN(C(=O)C6CN(c7ccc(C(=O)NC8CCC(=O)NC8=O)cc7)C6)CC5)cn4)ncc3F)cc2n1C(C)C (stereo not shown) [Compound 137, N-(2,6-dioxopiperidin-3-yl)-4-(3-(4-((6-((5-fluoro-4-(4-fluoro-1-isopropyl-2-methyl-1H-benzo[d]imidazol-6-yl)pyrimidin-2-yl)amino)pyridin-3-yl)methyl)piperazine-1-carbonyl)azetidin-1-yl)benzamide]	50 to 200	50 to 200	> 60	50 to 200	> 60
Cc1nc2c(F)cc(-c3nc(Nc4ccc(CN5CCN(C(=O)C6CN(c7ccc(NC8CCC(=O)NC8=O)cc7)C6)CC5)cn4)ncc3F)cc2n1C(C)C (stereo not shown) [Compound 138, 3-((4-(3-(4-((6-((5-fluoro-4-(4-fluoro-1-isopropyl-2-methyl-1H-benzo[d]imidazol-6-yl)pyrimidin-2-yl)amino)pyridin-3-yl)methyl)piperazine-1-carbonyl)azetidin-1-yl)phenyl)amino) piperidine-2,6-dione]	50 to 200	50 to 200	> 60	50 to 200	> 60
